Where only a bound is given, the exact number is not on record here.

T1 sequence (P08069 954-1367): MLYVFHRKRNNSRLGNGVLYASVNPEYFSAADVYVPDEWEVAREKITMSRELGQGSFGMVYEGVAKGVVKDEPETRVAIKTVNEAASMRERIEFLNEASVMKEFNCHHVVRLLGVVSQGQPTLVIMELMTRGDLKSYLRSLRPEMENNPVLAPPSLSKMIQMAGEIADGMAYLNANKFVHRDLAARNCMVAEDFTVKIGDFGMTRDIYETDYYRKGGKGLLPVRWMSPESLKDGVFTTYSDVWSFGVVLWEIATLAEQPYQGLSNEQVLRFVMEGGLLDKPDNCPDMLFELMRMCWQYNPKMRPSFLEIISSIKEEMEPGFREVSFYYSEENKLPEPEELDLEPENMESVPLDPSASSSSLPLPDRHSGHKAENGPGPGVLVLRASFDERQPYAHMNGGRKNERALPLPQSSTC

The test concerns the target T1, human IGF-1R (Homo sapiens, UniProt P08069).
T1 construct: human IGF-1R, amino acids 954-1367 expressed by baculovirus in Sf21 cells; GST (C); purchased Cell Signaling Technology; host or cells: baculovirus in Sf21 cells
Nature of the test: IGF-1R homogenous time-resolved fluorescence (HTRF) in vitro kinase assay. The class given is biochemical. Particulars: recombinant GST-tagged human IGF-1R aa 954-1367; ATP 50 μM; 60 minutes at room temperature. The method, then: IGF-1R kinase activity was assayed by a homogenous time-resolved fluorescence (HTRF) in vitro kinase assay (Mathis, G., HTRF(R) Technology. J Biomol Screen, 1999. 4(6): p. 309-314). Specifically, 10 μL C-terminal GST-tagged, recombinant, human IGF-1R, amino acids 954-1367 expressed by baculovirus in Sf21 cells (Cell Singaling Technology) was mixed with 10 μL inhibitor (various concentrations, 2% final DMSO) and 10 μL of ATP (50 μM final concentration) in reaction buffer (50 mM HEPES, pH 7.5, 10 mM MgCl2, 2 mM MnCl2, 0.1% BSA and 1 mM DTT, 40 μL final volume). The reaction was initiated by addition of 10 μL of biotinylated peptide substrate (Biotin-Ahx-[…], 0.5 μM final concentration) in a black 384-well plate (Packard). […] The quenched reaction was allowed to stand at room temperature for 1 hour and then read in a time-resolved fluorescence detector (Envision, Perkin Elmer) at 615 nm and 665 nm simultaneously. The ratio between the signal of 615 nm and 665 nm was used in the calculation of the IC50.
Usually IC50 stands for the concentration needed to halve the response being measured. With `CCN1CCN(c2ccc(Nc3ncc(Br)c(Nc4ccc5[nH]ncc5c4)n3)cc2)CC1` [Example 7, 5-bromo-N^2-[4-(4-ethylpiperazin-1-yl)phenyl]-N^4-1H-indazol-5-ylpyrimidine-2,4-diamine], the IC50 lay in the range of 51 to 100 nM.

Consider `CCN1CCN(c2ccc(Nc3ncc(Br)c(Nc4ccc5[nH]c(CCc6ccccc6)nc5c4)n3)cc2)CC1` [Example 3, 5-bromo-N^2-[4-(4-ethylpiperazin-1-yl)phenyl]-N^4-[2-(2-phenylethyl)-1H-benzimidazol-5-yl]pyrimidine-2,4-diamine], for which the IC50 is above 500 nM.

For `CNC(=O)c1cc2c(cnn2C)cc1Nc1nc(Nc2ccc(N3CCN(C(C)C)CC3)cc2OC)ncc1Br` [Example 44, 5-[(5-bromo-2-{[4-(4-isopropylpiperazin-1-yl)-2-methoxyphenyl]amino}pyrimidin-4-yl)amino]-N,1-dimethyl-1H-indazole-6-carboxamide], the 50% inhibitory concentration (IC50) lay within 10 to 50 nM.

Take `COc1cc(N2CCC(N(C)C)CC2)ccc1Nc1ncc(Br)c(Nc2cc3cn[nH]c3cc2SC(C)C)n1` [Example 24, 5-bromo-N^2-{4-[4-(dimethylamino)piperidin-1-yl]-2-methoxyphenyl}-N^4-[6-(isopropylthio)-1H-indazol-5-yl]pyrimidine-2,4-diamine]: the IC50 fell in the range of 10 to 50 nM.

As for `CN(C)C1CCN(c2ccc(Nc3ncc(Br)c(Nc4cc5cnn(C)c5cc4S(C)(=O)=O)n3)cc2)CC1` [Example 37, 5-bromo-N^2-{4-[4-(dimethylamino)piperidin-1-yl]phenyl}-N^4-[1-methyl-6-(methylsulfonyl)-1H-indazol-5-yl]pyrimidine-2,4-diamine], the IC50 was in the range of 10 to 50 nM.

Consider `CCN1CCN(c2ccc(Nc3ncc(Br)c(Nc4ccc5c(c4)ncn5Cc4ccccc4)n3)cc2)CC1` [Example 4, N^4-(1-benzyl-1H-benzimidazol-5-yl)-5-bromo-N^2-[4-(4-ethylpiperazin-1-yl)phenyl]pyrimidine-2,4-diamine], for which the half-maximal inhibitory concentration (IC50) lay in the range of 101 to 500 nM.

`CCN1CCN(c2ccc(Nc3ncc(C)c(Nc4ccc5[nH]ncc5c4)n3)cc2)CC1` [Example 9, N^2-[4-(4-ethylpiperazin-1-yl)phenyl]-N^4-1H-indazol-5-yl-5-methylpyrimidine-2,4-diamine]: the IC50 was above 500 nM.

Regarding `COc1cc(N2CCC(N3CCN(C)CC3)CC2)ccc1Nc1ncc(Br)c(Nc2cc3cnn(C)c3cc2S(=O)(=O)C(C)C)n1` [Example 28, 5-bromo-N^4-[6-(isopropylsulfonyl)-1-methyl-1H-indazol-5-yl]-N^2-{2-methoxy-4-[4-(4-methylpiperazin-1-yl)piperidin-1-yl]phenyl}pyrimidine-2,4-diamine], the IC50 was below 10 nM.

`CCS(=O)(=O)c1cc2c(cnn2C)cc1Nc1nc(Nc2ccc(N3CCC(N(C)C)CC3)cc2OC)ncc1Br` [Example 33, 5-bromo-N^2-{4-[4-(dimethylamino)piperidin-1-yl]-2-methoxyphenyl}-N^4-[6-(ethylsulfonyl)-1-methyl-1H-indazol-5-yl]pyrimidine-2,4-diamine]: the half-inhibitory concentration (IC50) is below 10 nM.

On to `COc1cc(N2CCC(N(C)C)CC2)ccc1Nc1ncc(Br)c(Nc2ccc3sc(C)nc3c2)n1` [Example 22, 5-bromo-N^2-{4-[4-(dimethylamino)piperidin-1-yl]-2-methoxyphenyl}-N^4-(2-methyl-1,3-benzothiazol-5-yl)pyrimidine-2,4-diamine], for which the IC50 fell in the range of 51 to 100 nM.

Turning to `COc1cc(N2CCC(N(C)C)CC2)ccc1Nc1ncc(Br)c(Nc2cc3cn(C)nc3cc2S(=O)(=O)C(C)C)n1` [Example 29, 5-bromo-N^2-{4-[4-(dimethylamino)piperidin-1-yl]-2-methoxyphenyl}-N^4-[6-(isopropylsulfonyl)-2-methyl-2H-indazol-5-yl]pyrimidine-2,4-diamine], the IC50 lay within 101 to 500 nM.

Take `COc1cc(N2CCC(N(C)C)CC2)ccc1Nc1ncc(Br)c(Nc2cc3cn[nH]c3cc2S(=O)(=O)C(C)C)n1` [Example 23, 5-bromo-N^2-{4-[4-(dimethylamino)piperidin-1-yl]-2-methoxyphenyl}-N^4-[6-(isopropylsulfonyl)-1H-indazol-5-yl]pyrimidine-2,4-diamine]: the half-maximal inhibitory concentration (IC50) was below 10 nM.

Regarding `COc1cc(N2CCC(N(C)C)CC2)ccc1Nc1ncc(Br)c(Nc2ccc3[nH]ncc3c2)n1` [Example 12, 5-bromo-N^2-{4-[4-(dimethylamino)piperidin-1-yl]-2-methoxyphenyl}-N^4-1H-indazol-5-ylpyrimidine-2,4-diamine], the concentration for half-maximal inhibition (IC50) was 10 to 50 nM.

Regarding `CCS(=O)(=O)c1cc2[nH]ncc2cc1Nc1nc(Nc2ccc(N3CCC(N(C)C)CC3)cc2OC)ncc1Br` [Example 30, 5-bromo-N^2-{4-[4-(dimethylamino)piperidin-1-yl]-2-methoxyphenyl}-N^4-[6-(ethylsulfonyl)-1H-indazol-5-yl]pyrimidine-2,4-diamine], the IC50 was below 10 nM.

Consider `CCS(=O)(=O)c1cc2c(cnn2C)cc1Nc1nc(Nc2ccc(N3CCC(N(C)C)CC3)cc2)ncc1Br` [Example 36, 5-bromo-N^2-{4-[4-(dimethylamino)piperidin-1-yl]phenyl}-N^4-[6-(ethylsulfonyl)-1-methyl-1H-indazol-5-yl]pyrimidine-2,4-diamine], for which the IC50 is 10 to 50 nM.

Regarding `COc1cc(N2CCC(N(C)C)CC2)ccc1Nc1ncc(Br)c(Nc2cc3cn[nH]c3cc2C)n1` [Example 21, 5-bromo-N^2-{4-[4-(dimethylamino)piperidin-1-yl]-2-methoxyphenyl}-N^4-(6-methyl-1H-indazol-5-yl)pyrimidine-2,4-diamine], the IC50 fell in the range of 101 to 500 nM.

In the case of `CCS(=O)(=O)c1cc2c(cnn2C)cc1Nc1nc(Nc2ccc(N3CCOCC3)cc2OC)ncc1Br` [Example 39, 5-bromo-N^4-[6-(ethylsulfonyl)-1-methyl-1H-indazol-5-yl]-N^2-(2-methoxy-4-morpholin-4-ylphenyl)pyrimidine-2,4-diamine], the IC50 fell in the range of 10 to 50 nM.

Regarding `CCS(=O)(=O)c1cc2[nH]ncc2cc1Nc1nc(Nc2ccc(N3CCC(N(C)C)CC3)cc2)ncc1Br` [Example 31, 5-bromo-N^2-{4-[4-(dimethylamino)piperidin-1-yl]phenyl}-N^4-[6-(ethylsulfonyl)-1H-indazol-5-yl]pyrimidine-2,4-diamine], the IC50 was in the range of 10 to 50 nM.

With `COc1cc(N2CCC(N(C)C)CC2)ccc1Nc1ncc(Cl)c(Nc2cc3cn[nH]c3cc2S(=O)(=O)C(C)C)n1` [Example 26, 5-chloro-N^2-{4-[4-(dimethylamino)piperidin-1-yl]-2-methoxyphenyl}-N^4-[6-(isopropylsulfonyl)-1H-indazol-5-yl]pyrimidine-2,4-diamine], the IC50 was 10 to 50 nM.

On to `CCN1CCN(c2ccc(Nc3ncc(C(F)(F)F)c(Nc4ccc5[nH]ncc5c4)n3)cc2)CC1` [Example 11, N^2-[4-(4-ethylpiperazin-1-yl)phenyl]-N^4-1H-indazol-5-yl-5-(trifluoromethyl)pyrimidine-2,4-diamine], for which the IC50 lay within 101 to 500 nM.

Take `CCS(=O)(=O)c1cc2[nH]ncc2cc1Nc1nc(Nc2ccc(N3CCOCC3)cc2OC)ncc1Br` [Example 32, 5-bromo-N^4-[6-(ethylsulfonyl)-1H-indazol-5-yl]-N^2-(2-methoxy-4-morpholin-4-ylphenyl)pyrimidine-2,4-diamine]: the IC50 lay in the range of 10 to 50 nM.

For `CCN1CCN(c2ccc(Nc3ncc(Br)c(Nc4ccc5ncn(Cc6ccccc6)c5c4)n3)cc2)CC1` [Example 5, N^4-(1-benzyl-1H-benzimidazol-6-yl)-5-bromo-N^2-[4-(4-ethylpiperazin-1-yl)phenyl]pyrimidine-2,4-diamine], the IC50 was above 500 nM.

Consider `CNC(=O)c1cc2c(cnn2C)cc1Nc1nc(Nc2ccc(N3CCC(N(C)C)CC3)cc2OC)ncc1Br` [Example 35, 5-{[5-bromo-2-({4-[4-(dimethylamino)piperidin-1-yl]-2-methoxyphenyl}amino)pyrimidin-4-yl]amino}-N,1-dimethyl-1H-indazole-6-carboxamide], for which the IC50 fell in the range of 10 to 50 nM.

For `COc1cc(N2CCC(N(C)C)CC2)ccc1Nc1ncc(Br)c(Nc2cccc3[nH]c(C)nc23)n1` [Example 16, 5-bromo-N^2-{4-[4-(dimethylamino)piperidin-1-yl]-2-methoxyphenyl}-N^4-(2-methyl-1H-benzimidazol-4-yl)pyrimidine-2,4-diamine], the IC50 was in the range of 101 to 500 nM.

`COc1cc(N2CCC(N3CCN(C)CC3)CC2)ccc1Nc1ncc(Br)c(Nc2ccc3cccnc3c2)n1` [Example 50, 5-bromo-N^2-{2-methoxy-4-[4-(4-methylpiperazin-1-yl)piperidin-1-yl]phenyl}-N^4-quinolin-7-ylpyrimidine-2,4-diamine]: the IC50 is 10 to 50 nM.

With `COc1cc(N2CCC(N3CCN(C)CC3)CC2)ccc1Nc1ncc(Br)c(Nc2ccc3ccc(-c4ccccc4)nc3c2)n1` [Example 48, 5-bromo-N^2-{2-methoxy-4-[4-(4-methylpiperazin-1-yl)piperidin-1-yl]phenyl}-N^4-(2-phenylquinolin-7-yl)pyrimidine-2,4-diamine], the IC50 is above 500 nM.

As for `CCS(=O)(=O)c1cc2c(cnn2C)cc1Nc1nc(Nc2ccc(N3CCN(C(C)C)CC3)cc2OC)ncc1Br` [Example 42, 5-bromo-N^4-[6-(ethylsulfonyl)-1-methyl-1H-indazol-5-yl]-N^2-[4-(4-isopropylpiperazin-1-yl)-2-methoxyphenyl]pyrimidine-2,4-diamine], the IC50 was below 10 nM.

For the origin of these results see patent US8486933B2, “Pyrimidine inhibitors of kinase activity” (AbbVie Inc., priority 2009, dated 2013).
